Results reported in patent publication EP0157753B1, “New somatostatin compounds, process for their synthesis, preparation for veterinary use containing said compound and process for the treatment of animals” (TECHLAND, Société Anonyme, priority 1984, dated 1987).

Assay: Treatment of young bulls with GPP: live weight gain and food intake over 7 months
Type: in vivo
Settings: batch 5 (SRIF, MTP treated) versus batch 3 (SRIF, MDP treated); low, without any statistical significance
Description: They were injected four times with 100 µg of GPP or a mixture of equivalent amounts of muramyl di-or triptide and SRIF. Samples were solubilized in physiological medium supplemented with 40 % WN polyethyleneglycol 6000. Intramuscular injections in the neck of animals were performed with 3 ml of the solution at days 0, 10, 30 and 60 of the 7 months period. During the seventh months treatment period the animals received a concentrate ad libitum. Each month, the animals were weighed and blood samples were taken for further analyses. The results concerning the parameters studied in this zootechnical experiment were summarized in the following.
Variance analysis of the body live weight gain has been performed on 27 animals alive on September 27, 1984 (16 controls and 11 treated animals). At that time, the difference of life weight gain between the 16 control animals and the 11 treated animals was 31.3 kg per animal, i. e. 11 % over controls.

Substance: SRIF, MTP: Coupling of a muramyl tripeptide analog (N-acetyl muramyl-L-Ala-D-isoglutamyl-L-lysine OMe) with somatostatine (SRIF)
- deviation between the life gain of treated animals of batch 5 and batch 3: 5.7 kg
